Experimental data from patent US8440199B2, “Methods for mobilizing mesenchymal stem cells in a patient” (Imperial Innovations Limited, priority 2007, dated 2013).

Legend:
EPCs = assay: Circulating CFU-EPC in blood; format: in vivo, mice; conditions: FIG. 20c
neutrophils [1] = assay: Neutrophil mobilization, in situ perfusion of hind limb; conditions: VEGF (50 nM) infused acutely with CXCR4 antagonist, FIG. 24b
Description: 24 hours later these mice underwent perfusion of the right hind limb. CXCR4 antagonist (AMD3100 0.1 mM, closed bars) or vehicle (PBS, open bars) were then infused directly into the femoral artery for 10 minutes. The hind limb was then perfused for a further 50 minutes to allow collection of a, neutrophils via the femoral vein. […] The hind limb was again perfused for a further 50 minutes to allow b, collection of neutrophils. […] Data: mean±s.e.m. *: P<0.05, ***: P<0.001 between selected groups.
On day 5 following pre-treatment of growth factors, mice were anaesthetized and the femoral artery and vein exposed. The hind limb was isolated by occlusion of the external iliac artery, superficial epigastric and muscular branch. […] Perfusion buffer was infused via the arterial cannula and removed from the venous cannula using a Minipuls peristaltic pump (Anachem, Luton, UK). The hind limb was perfused for an initial 2 minutes to remove remaining blood from the vasculature and then perfused for a further 60 min with vehicle alone or the CXCR4 antagonist (AMD3100, 0.1 mM), infused over the first 10 minutes using an infusion/withdrawal pump (Harvard Instruments, U.K.).
The perfusate was centrifuged and re-suspended in DMEM+20% FBS.

HPCs [2] = assay: In vitro chemotaxis of bone marrow HPCs towards SDF-1α; format: cell-based; conditions: bone marrow cells of mice treated 4 days; 30 nM SDF-1α, FIG. 23d, 23f
Description: Bone marrow was aspirated on day 5 and harvested cells were used to determine a, SDF-1α levels in bone marrow supernatant as determined by ELISA; b, % of bone marrow Lin^− Sca-1^+ cells expressing CXCR4; and c, % of bone marrow CD34^+ VEGFR2^+ cells expressing CXCR4. Harvested cells were also utilized in the following chemotaxis assays: d, number of HPCs; and e, EPCs undergoing chemotaxis towards 30 nM SDF-1α. Cells taken from bone marrow of mice treated with G-CSF (closed bars) or vehicle (PBS, open bars). f, number of HPCs; and g, EPCs undergoing chemotaxis towards 30 nM SDF-1α.

CXCR2 = assay: Flow cytometry of CXCR2 expression on bone marrow neutrophils; format: in vivo; conditions: VEGF-treated mice, FIG. 24d
Description: (§1) For flow cytometric analysis, cells were re-suspended in FACS buffer. To identify neutrophils in the bone marrow, surface expression of the granulocyte marker Ly-6G/Ly6C (Gr-1) was determined. Neutrophils were identified as Gr-1^high positive cells with a characteristic high side scatter profile. HPCs residing in the BM were selected as being negative for lineage (Lin^−) markers: CD3e, CD11b, CD45R, Ly-76, and Gr-1 and positive for Sca-1 (Lin^− Sca-1^+ cells) (Gerber et al., 2002; Uchida, et al., 1997). EPCs residing in the BM were selected as being positive for both CD34 and VEGFR2 (CD34^+ VEGFR2^+ cells) (Asahara et al., 1997; Yoon et al., 2005). Furthermore, neutrophils were stained for the surface expression of CXCR2, whilst Lin^− Sca-1^+ cells and CD34^+ VEGFR2^+ cells were stained for the cell surface expression of CXCR4. Samples were then washed and then quantified on a FACSAria cell sorter (BD Biosciences, Oxford, United Kingdom) and analysed using FACSDiva software.

CD34^+ VEGFR2^+ EPCs = assay: PI staining, cell cycle status of CD34+ VEGFR2+ EPCs; format: in vivo, mice; conditions: treated 4 days, FIG. 25d
Description: as §1, with “Furthermore, neutrophils were stained for the surface expression of CXCR2, whilst Lin^− Sca-1^+ cells and CD34^+ VEGFR2^+ cells were stained for the cell surface expression of CXCR4.” left out
Lin^− Sca-1^+ cells and CD34^+ VEGFR2^+ cells were analysed to determine their cell cycling status using a propidium iodide (PI) stain. […] A dotplot of PI-Width against PI-Area was recorded. Aggregates of cells were detected as cells having a larger PI-W profile and were not included in the gate. […] To calculate the percentage of cells undergoing active cell cycling, a marker was set to exclude the G0/G1 peak and the percentage of cells in S/G2/M was calculated.

[3] = Total number of cells in the femurs; format: in vivo; conditions: treated over 4 days; not significantly different compared to control mice
Description: (§2) 24 hours after the last injection, bone marrow was aspirated for the enumeration of a, CFU-HPC bone marrow frequency; b, CFU-EPC bone marrow frequency; and c, CFU-SPC bone marrow frequency.
24 hours after the last injection, mice were administered a CXCR4 antagonist (AMD3100, 5 mg/kg i.p), KC (30 μg/kg i.v.) or vehicle and blood was collected via cardiac puncture 60 minutes later for enumeration of circulating leukocyte, HPC, EPC, and stromal progenitor cell levels.
(§3) The perfusate was centrifuged and re-suspended in DMEM+20% FBS. In some experiments citrated blood was obtained via cardiac bleed and lysed for red blood cells. Bone marrow and perfusate cytospins, and blood smears were stained using DiffQuik for the enumeration of mononuclear cells, eosinophils, and neutrophils. Bone marrow, perfusate and lysed blood were then used for assays outlined below to enumerate HPCs (CFU-HPC), EPCs (CFU-EPC), SPCs (CFU-F).

HPCs [4] = assay: In situ perfusion of mouse hind limb, CFU-HPC in perfusate; conditions: for HPC mobilization from the bone marrow: FIG. 21b
Description: 24 hours after the last injection, mice underwent perfusion of the right hind limb. […] The hind limb was then perfused for a further 50 minutes to allow collection of b, CFU-HPC; c, CFU-EPC; or d, CFU-SPC; via the femoral vein. CFU-HPC, CFU-EPC, and CFU-SPC are shown as total number of colonies collected in the perfusate. n=5-8 mice per group. Data: means±s.e.m. *: P<0.05, **: P<0.01, ***: P<0.001 between selected groups.
Female BALB/c mice were purchased from Harlan (Oxford, United Kingdom).
On day 5 following pre-treatment of growth factors, mice were anaesthetized and the femoral artery and vein exposed. The hind limb was isolated by occlusion of the external iliac artery, superficial epigastric and muscular branch. Polyethylene cannulae (Portex, London, UK) were immediately inserted into the femoral artery and vein as previously described (Martin et al., 2003; 2006; Wengner et al., 2008). Perfusion buffer was infused via the arterial cannula and removed from the venous cannula using a Minipuls peristaltic pump (Anachem, Luton, UK). The hind limb was perfused for an initial 2 minutes to remove remaining blood from the vasculature and then perfused for a further 60 min with vehicle alone or the CXCR4 antagonist (AMD3100, 0.1 mM), infused over the first 10 minutes using an infusion/withdrawal pump (Harvard Instruments, U.K.).
The perfusate was centrifuged and re-suspended in DMEM+20% FBS. […] Bone marrow, perfusate and lysed blood were then used for assays outlined below to enumerate HPCs (CFU-HPC), EPCs (CFU-EPC), SPCs (CFU-F).
5×10^4 cells were added to Methocult medium (Stem cell technologies) supplemented with specific cytokines and growth factors to enable formation of CFU-HPC. Mobilized cells were incubated for 11 days before quantification. Further characteristics of CFU-HPC colonies were obtained on day 12, namely the mean number of cells in each colony, and the mean colony area. The mean colony area (mm^2) was determined by image analysis using Scion Image analysis program (NIH). The cell number was determined by diluting colonies grown in Methocult into DMEM (to disperse the methylcellulose) and aspirating the colonies into a single cell suspension before obtaining a cell count.
The total number of colony forming units mobilized was calculated according to the number of colonies per plate×by the total number of leukocytes mobilized/number of cells seeded.

SPCs = assay: CFU-SPC bone marrow frequency; format: in vivo, mice; conditions: treated over 4 days, compared to controls, FIG. 22c
Description: as §2
Female BALB/c mice were purchased from Harlan (Oxford, United Kingdom). […] 24 hours after the last injection, mice were administered a CXCR4 antagonist (AMD3100, 5 mg/kg i.p), KC (30 μg/kg i.v.) or vehicle and blood was collected via cardiac puncture 60 minutes later for enumeration of circulating leukocyte, HPC, EPC, and stromal progenitor cell levels.
as §3
5×10^5 cells were added to Mesencult media including supplements (Stemcell Technologies). Dishes were incubated for 7 days before media was changed, and then incubated for a further 14 days before the enumeration of SPC colonies (CFU-F).

neutrophils [5] = assay: Leukocyte counts of bone marrow; format: in vivo, mice; conditions: treated 4 days, compared to controls, FIG. 24f
Description: 24 hours later these mice underwent perfusion of the right hind limb. CXCR4 antagonist (AMD3100 0.1 mM, closed bars) or vehicle (PBS, open bars) were then infused directly into the femoral artery for 10 minutes. The hind limb was then perfused for a further 50 minutes to allow collection of a, neutrophils via the femoral vein. […] The hind limb was again perfused for a further 50 minutes to allow b, collection of neutrophils.
The perfusate was centrifuged and re-suspended in DMEM+20% FBS. […] Bone marrow and perfusate cytospins, and blood smears were stained using DiffQuik for the enumeration of mononuclear cells, eosinophils, and neutrophils.

VEGF
circulating numbers of EPCs (EPCs; agent alone (AMD3100 5 mg/kg i.p., blood at 60 min; G-CSF or VEGF once daily for 4 days)): increase in EPC numbers
circulating numbers of EPCs (EPCs; growth factor pre-treatment over 4 days, then CXCR4 antagonist AMD3100 5 mg/kg i.p.): more than additive increase in EPC numbers
suppression of neutrophil mobilization in response to the CXCR4 antagonist, acute administration (neutrophils [1]): effect was not seen
HPC chemotaxis towards SDF-1α (HPCs [2]): abolished the ability of HPCs to migrate to SDF-1α
proportion of Gr-1+ bone marrow neutrophils expressing CXCR2 (CXCR2): did not affect either the proportion of Gr-1^+ bone marrow neutrophils expressing CXCR2
percentage of CD34+ VEGFR2+ EPCs in S/G2/M phase of the cell-cycle (CD34^+ VEGFR2^+ EPCs): did not alter the percentage of CD34^+ VEGFR2^+ EPCs in the S/G2/M phase
total number of cells in the femurs [3]: 1.07±0.11×10^7 cells/femur
reduction of HPC mobilization induced by infusion of the CXCR4 antagonist (HPCs [4]; VEGF pre-treatment 4 days, then CXCR4 antagonist infused): 75%
HPC mobilization from the bone marrow (HPCs [4]; agent alone (CXCR4 antagonist 0.1 mM infused 10 min; G-CSF or VEGF pre-treatment 4 days), perfusate over 1 hour): HPCs and SPCs were not mobilized
HPC mobilization, acute administration (HPCs [4]; growth factor (50 nM) infused into femoral artery for 10 minutes, alone, FIG. 31a): mobilized both HPCs and EPCs
HPC mobilization from the bone marrow (HPCs [4]; growth factor pre-treatment 4 days, then CXCR4 antagonist infused): almost completely suppressed HPC mobilization
frequency/number of SPCs in the bone marrow (SPCs): no difference was observed
numbers of neutrophils in the bone marrow (neutrophils [5]): significant reduction in absolute numbers of mature neutrophils
